Residue numbers refer to the chain shown, from its start.
Key:
Assay in all cases: two-electrode voltage clamp, Xenopus oocytes
Format in all cases: cell-based
Conditions in all cases: holding potential −80 mV, pH 7.5, agonist
HassOr6/HassOrco = target: T1, HassOr6/HassOrco (Helicoverpa assulta, UniProt R4JLZ7)
T1 construct: gene OR6; full-length Or6, pCS2+ vector, cRNA co-injected with Orco in Xenopus laevis oocytes; with Odorant receptor coreceptor
T1 sequence (R4JLZ7 1-425): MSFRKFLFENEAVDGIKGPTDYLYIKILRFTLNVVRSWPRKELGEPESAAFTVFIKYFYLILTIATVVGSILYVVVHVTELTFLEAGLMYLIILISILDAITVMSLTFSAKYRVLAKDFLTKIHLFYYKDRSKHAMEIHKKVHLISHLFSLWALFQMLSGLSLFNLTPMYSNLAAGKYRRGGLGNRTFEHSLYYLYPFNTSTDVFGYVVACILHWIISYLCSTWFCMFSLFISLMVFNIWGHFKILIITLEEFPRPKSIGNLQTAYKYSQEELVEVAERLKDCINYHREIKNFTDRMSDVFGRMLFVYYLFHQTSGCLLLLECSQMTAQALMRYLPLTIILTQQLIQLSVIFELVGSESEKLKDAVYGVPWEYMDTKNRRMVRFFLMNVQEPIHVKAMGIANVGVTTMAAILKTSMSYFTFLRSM
T1 sequence (A7UGE1 1-473 partner): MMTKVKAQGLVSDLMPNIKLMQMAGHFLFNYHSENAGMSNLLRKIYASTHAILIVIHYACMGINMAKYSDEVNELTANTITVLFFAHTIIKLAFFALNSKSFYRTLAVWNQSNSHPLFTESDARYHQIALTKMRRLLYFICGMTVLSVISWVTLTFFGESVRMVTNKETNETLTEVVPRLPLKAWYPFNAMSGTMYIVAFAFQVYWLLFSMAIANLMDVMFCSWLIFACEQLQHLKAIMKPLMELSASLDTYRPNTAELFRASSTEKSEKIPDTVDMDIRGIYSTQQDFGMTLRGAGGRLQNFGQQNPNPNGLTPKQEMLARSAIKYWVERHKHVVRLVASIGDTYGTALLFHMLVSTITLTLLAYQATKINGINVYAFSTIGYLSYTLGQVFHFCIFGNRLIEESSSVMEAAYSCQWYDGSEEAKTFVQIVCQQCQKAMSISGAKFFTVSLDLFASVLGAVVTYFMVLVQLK

HarmOr14b/HarmOrco = target: T2, HarmOr14b/HarmOrco (Helicoverpa armigera, UniProt R4JUU3)
T2 construct: gene OR14b; full-length Or14b, pCS2+ vector, cRNA co-injected with Orco in Xenopus laevis oocytes; with Odorant receptor coreceptor
T2 sequence (R4JUU3 1-440): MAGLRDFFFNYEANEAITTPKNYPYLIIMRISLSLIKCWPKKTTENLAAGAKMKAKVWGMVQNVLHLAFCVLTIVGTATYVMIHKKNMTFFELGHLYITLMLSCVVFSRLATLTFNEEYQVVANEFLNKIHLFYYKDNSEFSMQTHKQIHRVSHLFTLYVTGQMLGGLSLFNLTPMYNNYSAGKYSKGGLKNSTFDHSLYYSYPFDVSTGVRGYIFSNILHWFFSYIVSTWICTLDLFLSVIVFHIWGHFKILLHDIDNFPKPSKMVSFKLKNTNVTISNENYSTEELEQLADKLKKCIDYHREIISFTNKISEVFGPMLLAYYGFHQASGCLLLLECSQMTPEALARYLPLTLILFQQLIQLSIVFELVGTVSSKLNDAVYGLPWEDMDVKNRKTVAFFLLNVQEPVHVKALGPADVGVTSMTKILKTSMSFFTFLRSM
T2 sequence (A0A075TD45 1-473 partner): T1 sequence (A7UGE1 1-473 partner) with V55F

HassOr16/HassOrco = target: T3, HassOr16/HassOrco (Helicoverpa assulta, UniProt C6K7C1)
T3 construct: full-length Or16, pCS2+ vector, cRNA co-injected with Orco in Xenopus laevis oocytes; with Odorant receptor coreceptor
T3 sequence (C6K7C1 1-422): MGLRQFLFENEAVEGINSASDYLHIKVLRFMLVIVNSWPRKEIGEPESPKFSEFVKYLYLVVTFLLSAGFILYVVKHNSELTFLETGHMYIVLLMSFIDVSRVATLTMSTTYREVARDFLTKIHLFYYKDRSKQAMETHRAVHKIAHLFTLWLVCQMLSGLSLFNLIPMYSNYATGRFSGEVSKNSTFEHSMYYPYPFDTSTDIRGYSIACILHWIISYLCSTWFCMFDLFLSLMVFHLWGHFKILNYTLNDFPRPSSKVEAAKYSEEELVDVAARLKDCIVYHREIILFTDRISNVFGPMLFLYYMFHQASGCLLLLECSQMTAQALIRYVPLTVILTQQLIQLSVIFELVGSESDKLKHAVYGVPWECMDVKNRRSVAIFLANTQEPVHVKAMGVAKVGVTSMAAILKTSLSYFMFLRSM
T3 sequence (A7UGE1 1-473 partner): T1 sequence (A7UGE1 1-473 partner)

inward current at 10^-4 M (HassOr6/HassOrco)	inward current at 10^-4 M (HassOr16/HassOrco)	SMILES	inward current at 10^-4 M (HarmOr14b/HarmOrco)
HassOr6 is mainly tuned to Z9-16:OH	–	CCCCCC/C=C\CCCCCCCCO [Z9-16:OH, (Z)−9-hexadecenol]	–
–	HassOr16 is specific for Z9-14:Ald	CCCC/C=C\CCCCCCCC=O [Z9-14:Ald, (Z)−9-tetradecenal]	HarmOr14b is specifically tuned to Z9-14:Ald
–	–	CCCCCC/C=C\CCCCCCCC=O [Z9-16:Ald, (Z)−9-hexadecenal]	HarmOr14b is specifically tuned to Z9-14:Ald, and also weakly responds to Z9-16:Ald
